Marks after values point to notes of the source that are not given here.
Assays:
[1] = test system: APOE*3Leiden.CETP mice; test: Hepatocellular hypertrophy grading in APOE*3Leiden.CETP double transgenic mice; assay type: in vivo, mouse; settings: APOE*3Leiden.CETP mice on high fat/cholesterol diet; 0.3 mmol/kg bw per day by gavage; 20 weeks
Excerpt: The APOE*3Leiden.CETP double transgenic mouse expresses a variant of the human apolipoprotein E3 (APOE3), the APOE*3Leiden, in addition to the human apolipoprotein C1 (APOC1) and CETP. […] By increasing the cholesterol content of the diet in this model, all the characteristics of human NASH develop.
In one study (using 1% cholesterol w/w), after a 3 weeks run-in period low-responder mice (20% of total) were removed from the study and the remaining mice were sub-divided into 4 groups of 12 mice each (+5 in the control group), matched for plasma cholesterol, triglycerides, blood glucose, body weight and age (t=0) and treatment was started. The mice received a daily gavage between 07hr00 and 10hr00 with either Compound A at 0.3 mmol/kg bw per day, the comparison compound Compound N (0.3 mmol/kg bw per day), rosiglitazone (13 mg/kg bw per day) or control (corn oil). After 20 weeks of treatment mice were sacrificed by CO2 asphyxiation, the liver was collected and the level of hepatocellular hypertrophy was graded.

[2] = test system: APOE*3Leiden.CETP mice; settings: WO2016173923A1, cited from earlier work
[3] = test system: Col1a1 mRNA; test: Hepatic Col1a1 mRNA expression by qPCR, CDAA/high-fat diet mouse model; assay type: in vivo; settings: CDAA/high-fat fed mice
Excerpt: (§1) Mice were fed either choline-sufficient (CS) or choline deficient high-fat diets (31% total calories; “CDAA/high-fat”). The NASH inducing diet was instigated 6 weeks prior to the commencement of treatment in order to design the study as a treatment/reversal set-up rather than prophylaxis.
(§2) After 6 weeks of either the CS- or CDAA diet, mice were orally administered Compound A or comparison Compound N, both at 2 doses, 0.15 mmol/kg bw/day (low-dose, LD) and 0.3 mmol/kg bw per day (high-dose, HD). The test substances were administered orally as admix to the high-fat diet. Hepatic fibrosis was assessed by both measurement of hydroxyproline (HYP) content and Sirius Red (SR) morphometry. Fibrosis, inflammation and metabolism related transcripts levels were measured by quantitative real-time polymerase chain reaction (qPCR).
(§3) Studies were performed in male C56BL/6J mice (9 weeks old). Mice were divided into 6 experimental groups (n=9 per group) containing either CS or CDAA/high-fat diets, as described above. The NASH inducing CDAA/high fat diet was instigated 6 weeks prior to the commencement of treatment in order to assess treatment/reversal rather than prophylaxis. […] Compound A was administered orally as admix to the high-fat diet whilst GLP-1 agonist was delivered via intraperitoneal injection (i.p.). Fibrosis, inflammation and metabolism related transcripts levels were measured by quantitative real-time polymerase chain reaction (qPCR) in isolated liver tissue.

[4] = test system: TNF-α mRNA; test: Hepatic TNF-α mRNA expression by qPCR, CDAA/high-fat diet mouse model; assay type: in vivo; settings: CDAA/high-fat fed mice
Excerpt: as §1, §2, §3

[5] = test system: CDAA/high-fat fed mice; test: Hepatic hydroxyproline (HYP) content, CDAA/high-fat diet induced NASH mouse model; assay type: in vivo
Excerpt: Mouse models that are deficient in methionine and/choline (MCD and CDAA respectively) are well established for studying the development and treatment of NASH in pre-clinical drug development. As precursors for the synthesis of phosphatidylcholine, a dietary deficiency of methionine/choline leads to an inability to synthesize hepatic lipoproteins for the export of triglyceride that results in severe hepatic steatosis, inflammation and fibrosis.
Although the widely used methionine-choline deficient (MCD) diet consistently reproduces severe NASH-like hepatic inflammation and fibrosis in mice, it is also associated with severe weight-loss (loss of both skeletal muscle and fat mass). This is associated with an increased risk of death which presents major problems for long-term fibrogenesis experiments.
(§4) In Biological Examples 1-7, studies were performed in male C56BL/6J mice (9 weeks old). Mice were fed either choline-sufficient (CS) or choline deficient high-fat diets (31% total calories; “CDAA/high-fat”). The NASH inducing diet was instigated 6 weeks prior to the commencement of treatment in order to design the study as a treatment/reversal set-up rather than prophylaxis.
as §2, with “In Biological Examples 1-5, mice were divided into 6 experimental groups (n=9 per group) and fed either CS or CDAA/high-fat diets. After” for “After”

[6] = test system: CDAA/high-fat fed mice; test: Hepatic lipidomic analysis, CDAA/high-fat diet mouse model; assay type: in vivo; settings: Compound A 112 mg/kg bw per day or equimolar EPA, orally
Description: as §4
In Biological Example 7, after 6 weeks of either the CS or CDAA/high-fat diet, mice were administered 112 mg/kg bw per day of Compound A, or an equimolar dose of eicosapentaenoic acid (EPA), delivered orally. Hepatic lipidomic analysis was performed in isolated liver samples from CS (n=9), Compound A (n=9) and EPA (n=8) groups.
To further understand the effects of Compound A on hepatic lipid metabolism, lipidomic analysis of CS- and CDAA/high-fat fed mice (“CD”) was performed in isolated liver tissue.

[7] = test system: LX-2 human hepatic stellate cells; test: LX-2 stellate cell proliferation by BrdU incorporation; assay type: cell-based; settings: LX-2 cells; 24 hours; OA 75 μM
Description: (§5) Stellate cells are resident liver cells and the major cell type involved in the initiation and progression of liver fibrosis. In Biological Example 20, in vitro studies were performed on cultured human stellate cells (LX-2 cells) to assess direct effects of Compound A on these cells. Cells were treated for 24 hours with Compound A (10 μM, 25 μM, 50 μM, or 75 μM) or oleic acid (OA; 75 μM) and bromodeoxyuridine (BrdU) incorporation was assessed to determine effects on proliferation. A MTS (3-(4,5-dimethylthiazol-2-yl)-5-(3-carboxymethoxyphenyl)-2-(4-sulfophenyl)-2H-tetrazolium) assay was used to determine cell viability.
(§6) Cell proliferation of LX-2 human hepatic stellate cells treated for 24 hours with 10-75 μM of Compound A or oleic acid (OA) (75 μM) was assessed by BrdU incorporation. The results are normalised mean values ±S.E.M. of 5 independent experiments for icosabutate and 2 independent experiments for OA. […] The reduction in proliferation by Compound A was 25-34% at 24 hours whereas OA had no effect. The comparisons were made by one-way ANOVA with Dunnett's correction for multiple comparisons.

[8] = test system: LX-2 human hepatic stellate cells; test: LX-2 cell viability by MTS assay; assay type: cell-based; settings: LX-2 cells; 24 hours; Compound A 10-75 μM, OA 75 μM
Description: as §5, §6

[9] = Body weight, liver weight and food intake in ob/ob AMLN mice; assay type: in vivo, mouse
Description: (§7) Obese diet-induced B6.V-Lepob/Jrj mice (ob/ob) are consistently fibrosis (liver) prone when cholesterol (2%), 40% fat (containing 18% trans-fatty acids) and 20% fructose are added to a high-caloric diet (i.e., AMLN high-fat diet). ob/ob mice on AMLN diet (termed ‘ob/ob AMLN mice’) develop steatohepatitis and fibrosis within a shorter timeframe ([…]) compared with wild-type C57BL/6 mice (AMLN mice) fed the same diet. ob/ob AMLN mice provide an obese diet-induced model of NASH that also allows the study of effects on glycemic control. Development of NASH in the ob/ob AMLN model is confirmed by biopsy.
In Biological Examples 10-12, 15, and 19, studies were performed in male ob/ob mice (5 weeks old) fed an AMLN high-fat diet for 15 weeks, then randomized into 3 groups (n=10 per group) to receive either 112 mg/kg bw per day of Compound A via diet, 30 mg/kg bw per day pioglitazone via diet or no treatment (vehicle) for a further 4 weeks. An oral glucose tolerance test (OGTT) was performed at week 3. Hepatic fibrosis was assessed via measurements of hepatic fibrogenic/fibrolytic gene expression by RNA sequencing at 4 weeks.
(§8) In Biological Examples 10, 13-14, and 16-18, studies were performed in male ob/ob mice (5 weeks old) fed an AMLN high-fat diet for 18 weeks, then randomized into 6 groups (n=10 per group) to receive either Compound A (at 3 different daily doses, 45 mg/kg, 90 mg/kg or 135 mg/kg) via diet, 30 mg/kg bw per day obeticholic acid (OCA) via diet, or no treatment (vehicle) for a further 8 weeks. Assessment of NASH related parameters and fibrosis was made at study end by quantitative immune histochemistry (IHC) measurements.

[10] = test system: α-smooth muscle actin (SMA); test: Hepatic α-SMA content by quantitative IHC in ob/ob AMLN mice; assay type: in vivo, mouse; settings: 8 weeks, OCA 30 mg/kg
Description: as §7, §8

[11] = test system: ob/ob AMLN mice; test: Plasma ALT and AST (hepatocellular damage) in ob/ob AMLN mice; assay type: in vivo, mouse; settings: 8 weeks, OCA 30 mg/kg
Description: as §7, §8
To assess the effects of Compound A and pioglitazone on hepatocellular injury or damage in ob/ob AMLN mice, plasma alanine aminotransferase (ALT) and aspartate transaminase (AST) were measured after 8 weeks of administration.

[12] = test system: col1A1; test: Hepatic col1A1 content by quantitative IHC in ob/ob AMLN mice; assay type: in vivo, mouse; settings: 8 weeks, OCA 30 mg/kg
Description: as §7, §8

[13] = test system: STAM (model) mice; test: NAFLD activity score (NAS) in streptozotocin/high-fat diet NASH model (STAM model); assay type: in vivo, mouse; settings: 6 weeks treatment, Compound A 37 mg/kg/day oral gavage, telmisartan positive control
Excerpt: (§9) In Biological Example 8, pathogen-free 15-day-pregnant C57BL/6 mice were obtained from Charles River Laboratories in Japan Inc. (Kanagawa, Japan). NASH was established in male mice by a single subcutaneous injection of streptozotocin (STZ) (Sigma, USA) after birth and feeding with a high fat diet (HFD; CLEA) Japan, Japan) ad libitum after 4 weeks of age (day 28±2). Mice were randomised into 3 groups of 8 mice at 6 weeks of age the day before the start of treatment: vehicle (saline), Compound A and telmisartan (positive control). Treatment with Compound A at a dose of 37 mg/kg bw per day via oral gavage in conjunction with a high-fat diet was given for 6 weeks before sacrifice. NAFLD activity score (NAS) was calculated according to standardised criteria and fibrosis area was assessed via Sirius Red staining.

[14] = test system: STAM (model) mice; test: Fibrosis area by Sirius Red staining, STAM model; assay type: in vivo, mouse; settings: Sirius Red positive area, 6 weeks treatment, Compound A 37 mg/kg/day oral gavage
Excerpt: as §9

[15] = 8 weeks, Compound A 45, 90 and 135 mg/kg, OCA 30 mg/kg bw per day

For CC/C=C\C/C=C\C/C=C\C/C=C\C/C=C\CCCCSC(CC)(CC)C(=O)O [Compound N, 2-ethyl-2-((5Z,8Z,11Z,14Z,17Z)-icosa-5,8,11,14,17-pentaenylthio)butanoic acid, reference compound], the “Decrease in hypertrophy vs. control (%)” value [1] is given as 7%, the Hepatocellular hypertrophy [1] is given as 42.9 ± 29.7 and the “fibrosis (hydroxyproline/proline ratio)” value ([2]; APOE*3Leiden.CETP mice) is given as “had efficacy in reducing fibrosis”. The “influx of inflammatory cells into the liver” value [2] was “prevented the influx of inflammatory cells into the liver”, the “Col1a1 (relative mRNA expression)” value ([3]; HD 0.3 mmol/kg bw per day) was 16 and the “Col1a1 (relative mRNA expression)” value ([3]; LD 0.15 mmol/kg bw/day) was 15. For the same molecule, the “TNF-a (relative mRNA expression)” value ([4]; HD 0.3 mmol/kg bw per day) was 1.2, the “TNF-a (relative mRNA expression)” value ([4]; LD 0.15 mmol/kg bw/day) was 1*** and the “Hydroxyproline (μg) content per 100 mg liver” value ([5]; HD 0.3 mmol/kg bw per day orally as admix to diet) was 54 μg HYP/per 100 mg liver. For the same molecule, the “Hydroxyproline (μg) content per 100 mg liver” value ([5]; LD 0.15 mmol/kg bw/day orally as admix to diet) was 48 μg HYP/per 100 mg liver, the “Hydroxyproline (μg) content per liver” value ([5]; high dose (HD) 0.3 mmol/kg bw per day orally as admix to diet) was 950 µg and the “Hydroxyproline (μg) content per liver” value ([5]; low dose (LD) 0.15 mmol/kg bw/day orally as admix to diet) was 1100 µg.
For CC/C=C\C/C=C\C/C=C\C/C=C\C/C=C\CCCC(=O)O [EPA, (5Z,8Z,11Z,14Z,17Z)-icosa-5,8,11,14,17-pentaenoic acid, reference compound], the hepatic cholesteryl ester [6] was “did not reduce”, the “hepatic diglycerides (DG)” value [6] was “did not reduce” and the “hepatic free fatty acids (FFA)” value [6] was “did not reduce”. The “hepatic triglyceride (TG)” value [6] was “did not reduce”.
For CCCCCCCC/C=C\CCCCCCCC(=O)O [OA, oleic acid, reference compound], the “proliferation (BrdU incorporation)” value [7] was “no effect” and the “cell viability (MTS assay)” value [8] was “neither Compound A nor OA showed a significant effect”.
For CC[C@H]1[C@@H](O)[C@@H]2[C@H](CC[C@]3(C)[C@@H]([C@H](C)CCC(=O)O)CC[C@@H]23)[C@@]2(C)CC[C@@H](O)C[C@@H]12 [OCA, reference compound], the body weight [9, 15] was “neither Compound A (45 mg/kg, 90 mg/kg, and 135 mg/kg) nor OCA significantly affected body weight”, the food intake [9, 15] was “not affected” and the “area percentage of α-SMA content compared to pre-treatment biopsy” value [10] was “no significant effect”. The “plasma ALT” value [11] was “no effect”, the “plasma AST” value [11] was “no effect” and the “total col1A1 content” value [12] was “no significant effect”.
For CCCc1nc2c(C)cc(-c3nc4ccccc4n3C)cc2n1Cc1ccc(-c2ccccc2C(=O)O)cc1 [Telmisartan, reference compound], the Hepatocellular ballooning [13] was 0.8, the Lobular inflammation [13] was 0.45 and the “NAS score (mean ± SD)” value [13] was 1.8 ± 0.8. For the same molecule, the Steatosis [13] was 0.7 and the “Fibrosis area (%)” value [14] was 0.44%.
Work on CCc1ccc(CCOc2ccc(CC3SC(=O)NC3=O)cc2)nc1 (stereo not drawn) [pioglitazone, reference compound] yielded an increase in bodyweight ([9]; 4 weeks, pioglitazone 30 mg/kg bw per day, p<0.01) of 15%.

From US12440466B2, “Fatty acid derivatives for treating non-alcoholic steatohepatitis” (BASF AS, priority 2017, dated 2025)
